{"source": "patent US20120172298A1", "about": "“GLP-1 AND FGF21 COMBINATIONS FOR TREATMENT OF DIABETES TYPE 2” (Novo Nordisk A/S, priority 2009, published 2012)", "molecules": {"B1": {"name": "N-alpha1-[2-(2-{2-[2-(2-{2-[(S)-4-carboxy-4-(17-carboxyheptadecanoylamino)butyrylamino]ethoxy}ethoxy)acetylamino]ethoxy}ethoxy)acetyl][Arg56, Arg59, Arg69, Arg122]-Met-FGF21 (protein, listed as Homo sapiens)", "chain": "HPIPDSSPLLQFGGQVRQRYLYTDDAQQTEAHLEIREDGTVGGAADQSPESLLQLRALRPGVIQILGVRTSRFLCQRPDGALYGSLHFDPEACSFRELLLEDGYNVYQSEAHGLPLHLPGNRSPHRDPAPRGPARFLPLPGLPPALPEPPGILAPQPPDVGSSDPLSMVGPSQGRSPSYAS", "modifications": "N-terminal Met; N-alpha fatty diacid-gGlu-OEG-OEG acylation; mat_peptide (1)..(181); DISULFID (75)..(93)"}, "B2": {"name": "N-epsilon37-[2-(2-{2-[2-(2-{2-[(S)-4-Carboxy-4-({trans-4-[(19-carboxynonadecanoylamino)methyl]cyclohexanecarbonyl}amino)butyrylamino]ethoxy}ethoxy)acetylamino]e … (peptide)", "peptide": "HAEGTFTSDVSSYLEEQAAREFIAWLVRGRK", "modifications": "DesaminoHis at position 7 (GLP-1 numbering; position 1 of SEQ ID NO:3); Lys37 acylated at N-epsilon with 19-carboxynonadecanoyl-Trx-gamma-Glu-OEG-OEG albumin binder"}}, "key": {"[1]": {"tested_on": "3T3-L1 adipocytes", "test": "FGF21 activity assay, glucose uptake in 3T3-L1 adipocytes", "format": "cell-based, mouse", "method": "The following assay may be used for determining the biological activity, or potency, of FGF21 compounds.\nMouse 3T3-L1 fibroblasts (e.g. available from ATCC, catalogue no. CL-173) are maintained in basal medium (DMEM (4500 mg/I Glucose) with 10% Fetal Bovine Serum (FBS) and Penicillin/Streptomycin). The cells are not allowed to reach confluence and should be passed (transferred to new vials) before reaching approx. 60% of confluency (by visual inspection).\nFor the glucose uptake assay, cells are plated 80,000 cells/well in a 24 well plate, or 20,000 cells/well in a 96 well plate, and when they reach confluency (high density, with a view to have differentiated adipose cells made), the medium is changed from basal medium to basal medium containing Troglitazone, IBMX, Dexamethasone (commercially available from, e.g., Sigma) and human insulin (commercially available from, e.g., Novo Nordisk A/S).\nThe cells are used 7-14, preferably 7-10, days after initiation of differentiation. […] The cells are lysed with Triton X-100 and lysates transferred to a 96 wells plate, microscint-40 (commercially available from, e.g., Perkin Elmer) is added and amount of tracer counted in a TOP-counter (e.g. a Packard top-counter from Perkin Elmer).\nThe EC50 of the FGF21 compound in question is calculated, and may be indicated relative to that of, e.g., compound F1."}, "[2]": {"tested_on": "pancreatic islets from diabetic db/db mice", "test": "Restoration of glucose stimulated insulin release ex vivo (islet perifusion)", "format": "cell-based", "set-up": "AUC for time 35-75 minutes (glucose response), single repetitions / AUC for time 75-140 minutes (forskolin response), single repetitions: unit not given here", "conditions": "FGF21 = 50 nM Compound F1, GLP-1 = 100 nM Compound G3", "method": "This ex vivo example investigates the ability of pancreatic islets from diabetic db/db mice to restore, in response to treatment with FGF21 and GLP-1 compounds, the ability to release insulin in response to glucose stimulation.\nIslets from 25 db/db mice (Charles River), 15 weeks of age, were isolated according to the following procedure:\nAnimals were killed by cervical dislocation and fixated with pins on a Styrofoam plate. Pancreata were removed and transferred to a Packard vial containing 5 ml collagenase (Life Science, grade II, cat. no. 100502) 300 units/ml (one pancreas/vial) which was kept on ice until all pancreata were removed. Then the pancreata were shaken in the Grant/Edmund S25 thermoshaker at 200 strokes/min. at 37° C. for 5 min. The tissue was transferred to a fresh vial containing 5 ml 150 units/ml collagenase (supernatant was discarded) and shaken again in the thermoshaker for 5 min. The tissue was further shaken 3-5 min. on the thermoshaker, and thereafter all shaking is done by hand for 5-10 sec. each time. These steps were repeated until all tissue was digested. The process was followed continuously under the stereomicroscope and once digested the tissue was pooled and collected in progressively fewer tubes. All supernatants were washed 3 times in HBSS+0.5% NCS (HBSS (10×) from Gibco, cat. no. 14060, is diluted 10× in H2O before use, Newborn Calf Serum (NCS) from Gibco, cat. no. 26010-066), allowed to sediment for 5 min. between each wash, and left on ice, following which the islets were ready for picking. Islets were purified by transferring a little bit of supernatant to a Petri dish, filling up with HBSS+NCS and subsequently transferring (by mouth pipetting) with a constriction pipette to a new Petri dish. From there the islet were re-picked until pure, and then incubated in RPMI 1640 medium (Gibco, cat no 61870-010)+10% NCS at 37° C.\nAfter incubation, the islets were washed in Krebs Ringer solution (115 mM NaCl, 4.7 mM KCl, 2.6 mM CaCl2, 1.2 mM KH2PO4, 1.2 mM MgSO4, 10 mM HEPES, 0.2% BSA, 2 mM glutamine, 5 mM NaHCO3, pH 7.4) and subsequently used in an islet perifusion experiment (Suprafusion 2500 from Brandel). For each of the three preincubation conditions four perifusion columns each with 60 islets were used. The islets were placed in Bio-gel P2 (Bio-Rad. cat. no. 150-4114) in the columns with a nylon mesh below and above the gel. The islets were initially perifused for 40 minutes with Krebs Ringer solution containing 3 mM glucose to obtain a stable baseline of insulin release. After 40 minutes the buffer was exchanged to 15 mM glucose for 30 minutes (time 40-70 min). Then the buffer was exchanged to 15 mM glucose containing 10 μM forskolin (Tocris 1099, batch 3A/86008) for 40 minutes (time 70-110 min). Finally the buffer was exchanged to low glucose (3 mM) for 30 minutes (time 110-140 min). The buffer was set to flow through the perifusion system at a rate of 0.3 ml/minute. Samples were taken every 5 minutes from time 30 to 140 min. Samples were stored at −20° C. and subsequently analysed for insulin, essentially as described by Poulsen et al. in Journal of Biomolecular Screening 12(X); p. 1-8, 2007 (LOCI (Luminescent Oxygen Channeling Immunoassay) sandwich immunoassay).\nThe results (ng/ml insulin) are shown in Table 1 below as mean+/−standard error of mean (SEM). The figures for the control and the FGF21 compound are based on three repetitions (due to problems with one of the four columns in these two experiments), while the figures for the GLP-1 compound are based on four repetitions.\nThe corresponding Area Under the Curve (designated AUC) figures were also calculated, and for the statistics the Student's T-test was used."}, "[3]": {"target": "human GLP-1 receptor (human, UniProt P43220 24-463)", "sequence (P43220 24-463)": "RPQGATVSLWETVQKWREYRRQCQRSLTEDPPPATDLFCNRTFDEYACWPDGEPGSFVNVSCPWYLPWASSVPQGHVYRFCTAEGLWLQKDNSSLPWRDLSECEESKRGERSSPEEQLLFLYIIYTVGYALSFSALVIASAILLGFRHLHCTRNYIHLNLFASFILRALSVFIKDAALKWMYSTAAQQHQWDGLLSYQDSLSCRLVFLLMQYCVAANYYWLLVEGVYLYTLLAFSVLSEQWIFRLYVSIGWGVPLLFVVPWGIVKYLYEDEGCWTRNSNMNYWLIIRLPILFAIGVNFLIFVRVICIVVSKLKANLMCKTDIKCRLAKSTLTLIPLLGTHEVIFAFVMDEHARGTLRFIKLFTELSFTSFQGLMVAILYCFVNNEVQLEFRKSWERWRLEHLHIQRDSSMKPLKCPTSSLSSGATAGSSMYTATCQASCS", "test": "cell-based or functional assay"}, "[4]": {"conditions": "insulin AUC per perifusion column"}}, "note": "Where “and” joins values, the source holds several entries; their conditions need not be identical. Equal values may be shown once."}
{"molecule": "S-71-({2-[2-(2-{2-[2-(2-{2-[(S)-4-carboxy-4-(19-carboxynonadecanoyl-amino)butyrylamino]ethoxy}ethoxy)acetylamino]ethoxy}ethoxy)acetylamino]ethylcarbamoyl}methyl)-[Cys71]Met-FGF21 [compound F2]", "values": [{"measurement": "EC50 relative to that of compound F1", "setting": "[1]", "result": 11, "unit": "%"}]}
{"molecule": "N-epsilon26-[2-(2-{2-[2-(2-{2-[(S)-4-Carboxy-4-(17-carboxyheptadecanoylamino)butyrylamino]ethoxy}-ethoxy)acetylamino]ethoxy}ethoxy)acetyl][Aib8,Arg34]GLP-1-(7-37) [compound G3]", "values": [{"measurement": "AUC for time 35-75 minutes (glucose response), single repetitions", "setting": "[2]; [4]", "result": "450.5 and 528.5 and 492.9 and 367.8"}, {"measurement": "AUC for time 75-140 minutes (forskolin response), single repetitions", "setting": "[2]; [4]", "result": "3339 and 4005 and 3037 and 2674"}, {"measurement": "AUC for time 75-140 minutes (forskolin response), mean", "setting": "[2]; insulin AUC, * FGF21 vs GLP-1", "result": "(mean 3239)"}, {"measurement": "AUC for time 35-75 minutes (glucose response), mean", "setting": "[2]; insulin AUC, ** vs control", "result": "(mean 459.9**)"}]}
{"molecule": "B1", "values": [{"measurement": "EC50 relative to that of compound F1", "setting": "[1]", "result": 30, "unit": "%"}]}
{"molecule": "B2", "values": [{"measurement": "EC50 of cAMP formation (AlphaScreen cAMP assay), relative to that of compound G1", "setting": "[3]", "result": "~5 times the EC50 of compound G1"}]}
